Tested on: progranulin
Assay: Progranulin induction cellular assay (ELISA of secreted mouse PGRN)
Assay type: cell-based
Settings: Mus musculus, BV-2, read-out: EC50 μM
Description: Cellular Assays: Progranulin induction assay. To measure the efficacy of compounds, a progranulin induction cellular assay in mouse primary microglia (pMG), primary cortical neurons, and BV-2 cell lines is used. BV-2 cells are split the day before plating into a 96 well plate format at approximately 80%. Cells should be plated the day before and allowed for 1 hour attachment period and for 16 hour incubation. Levels of progranulin secreted into the cell culture medium or retained in the cell lysate can be quantified using an ELISA-based readout and measurement of secreted mouse PGRN in the medium was assessed by the methodology published by Ghidoni et al. 2012. Standard ELISA kits to measure PGRN are available from vendors such as Adipogen, R&D, and Biovendor.
Table B below presents the results of a progranulin induction assay as described above.

SMILES | EC50
COC[C@@]1(N)CC[C@H](C(=O)N2CCc3ccccc3[C@@H]2c2ccc(F)cc2)OC1 [Compound 5220, ((2R,5S)-5-amino-5-(methoxymethyl)tetrahydro-2H-pyran-2-yl)((S)-1-(4-fluorophenyl)-3,4-dihydroisoquinolin-2(1H)-yl)methanone] | 0.081 µM

Same assay, conditions: progranulin induction assay; mouse pMG, primary cortical neurons and BV-2 cell lines named, cell type not given; ELISA-based readout; read-out: EC50

SMILES | EC50
CN(C)[C@H]1C[C@H](C(=O)N2CCc3ccccc3[C@@H]2c2ccc(F)cc2)OC[C@H]1O [Compound 5447, ((2R,4S,5S)-4-(dimethylamino)-5-hydroxytetrahydro-2H-pyran-2-yl)((S)-1-(4-fluorophenyl)-3,4-dihydroisoquinolin-2(1H)-yl)methanone] | 0.659 µM
O=C([C@@H]1C[C@@](O)(CNCCO)CO1)N1CCc2ccccc2[C@@H]1c1ccc(F)cc1 (single isomer, unassigned) [Compound 5038] | 0.5 µM
COCCN[C@@H]1CC[C@H](C(=O)N2CCc3ccccc3[C@@H]2c2ccc(F)cc2)OC1 [Compound 5212, ((S)-1-(4-fluorophenyl)-3,4-dihydroisoquinolin-2(1H)-yl)((2R,5R)-5-((2-methoxyethyl)amino)tetrahydro-2H-pyran-2-yl)methanone] | 0.314 µM
N[C@H]1CO[C@@H](C(=O)N2CCc3ccccc3[C@@H]2c2ccc(F)cc2)C[C@H]1O [Compound 5065, ((2R,4R,5S)-5-amino-4-hydroxytetrahydro-2H-pyran-2-yl)((S)-1-(4-fluorophenyl)-3,4-dihydroisoquinolin-2(1H)-yl)methanone] | 0.324 µM
COCCN[C@H]1CC[C@@H](C(=O)N2CCc3ccccc3[C@@H]2c2ccc(F)cc2)OC1 [Compound 5029, ((S)-1-(4-fluorophenyl)-3,4-dihydroisoquinolin-2(1H)-yl)((2S,5S)-5-((2-methoxyethyl)amino)tetrahydro-2H-pyran-2-yl)methanone] | 0.37 µM
CO[C@H]1CO[C@@H](C(=O)N2CCc3ccccc3[C@@H]2c2ccc(F)cc2)C[C@@H]1NCC(F)(F)F [Compound 5577] | > 0.3 µM
CCN[C@H]1C[C@H](C(=O)N2CCc3ccccc3[C@@H]2c2ccc(F)cc2)OC[C@H]1O [Compound 5508, ((2R,4S,5S)-4-(ethylamino)-5-hydroxytetrahydro-2H-pyran-2-yl)((S)-1-(4-fluorophenyl)-3,4-dihydroisoquinolin-2(1H)-yl)methanone] | 0.03 µM
N[C@H]1CCO[C@H](C(=O)N2CCc3ccccc3[C@@H]2c2ccc(F)cc2)C1 (single isomer, unassigned) [Compound 5027] | 0.488 µM
CO[C@H]1CO[C@@H](C(=O)N2CCc3ccccc3[C@@H]2c2ccc(F)cc2)C[C@@H]1N(C)C [Compound 5575, ((2R,4S,5R)-4-(dimethylamino)-5-methoxytetrahydro-2H-pyran-2-yl)((S)-1-(4-fluorophenyl)-3,4-dihydroisoquinolin-2(1H)-yl)methanone] | 0.028 µM
O=C([C@H]1C[C@@H]2NCCO[C@H]2CO1)N1CCc2ccccc2[C@@H]1c1ccc(F)cc1 [Compound 5266, ((S)-1-(4-fluorophenyl)-3,4-dihydroisoquinolin-2(1H)-yl)((4aR,7R,8aS)-octahydropyrano[3,4-b][1,4]oxazin-7-yl)methanone] | 0.036 µM
O=C([C@@H]1CCNCCO1)N1CCc2ccccc2[C@@H]1c1ccc(F)cc1F (single isomer, unassigned) [Compound 5264] | 0.048 µM
C[N-][S@+2](C)([O-])[C@H]1CO[C@@H](C(=O)N2CCc3ccccc3[C@@H]2c2ccc(F)cc2)C[C@@H]1N (single isomer, unassigned) [Compound 5556] | 0.07 µM
CN[C@H]1C[C@H](C(=O)N2CCc3ccccc3[C@@H]2c2ccc(F)cc2)OC[C@@H]1O [Compound 5586] | 0.219 µM
O=C([C@H]1C[C@@H]2OCCN[C@@H]2CO1)N1CCc2ccccc2[C@@H]1c1ccc(F)cc1 [Compound 5432, ((S)-1-(4-fluorophenyl)-3,4-dihydroisoquinolin-2(1H)-yl)((4aR,7R,8aS)-hexahydro-2H,5H-pyrano[4,3-b][1,4]oxazin-7-yl)methanone] | 0.113 µM
N[C@]12CC[C@](C(=O)N3CCc4ccccc4[C@H]3c3ccc(F)cc3)(C1)OC2 (single isomer, unassigned) [Compound 5023] | 0.212 µM
O=C([C@H]1CNCCCO1)N1CCc2ccccc2[C@@H]1c1ccc(F)cc1 (single isomer, unassigned) [Compound 5090] | 0.162 µM
N[C@H]1C[C@H](C(=O)N2CCc3ccccc3[C@@H]2c2ccc(F)cc2)OC[C@@H]1F [Compound 5069, ((2R,4S,5R)-4-amino-5-fluorotetrahydro-2H-pyran-2-yl)((S)-1-(4-fluorophenyl)-3,4-dihydroisoquinolin-2(1H)-yl)methanone] | 0.142 µM
NCC1COC(C(=O)N2CCc3ccccc3[C@@H]2c2ccc(F)cc2)C1 (stereo in doubt) [Compound 5008, ((2S,4S)-4-(aminomethyl)tetrahydrofuran-2-yl)((S)-1-(4-fluorophenyl)-3,4-dihydroisoquinolin-2(1H)-yl)methanone] | 0.369 µM
COCCN1CCN[C@H]2C[C@H](C(=O)N3CCc4ccccc4[C@@H]3c3ccc(F)cc3)OC[C@@H]21 [Compound 5601] | 0.018 µM

SMILES | EC50
N[C@@]12CC[C@@](C(=O)N3CCc4ccccc4[C@H]3c3ccc(F)cc3)(C1)OC2 (stereo in doubt) [Compound 5022, (4-amino-2-oxabicyclo[2.2.1]heptan-1-yl)((S)-1-(4-fluorophenyl)-3,4-dihydroisoquinolin-2(1H)-yl)methanone] | 4.16 µM
CCN1CCN[C@H]2C[C@H](C(=O)N3CCc4ccccc4[C@@H]3c3ccc(F)cc3)OC[C@@H]21 [Compound 5599] | 0.001 µM
O=C([C@H]1C[C@@H]2NCC(CO)O[C@H]2CO1)N1CCc2ccccc2[C@@H]1c1ccc(F)cc1 (single isomer, unassigned) [Compound 5535] | 0.028 µM
N[C@H]1C[C@@H](C(=O)N2CCc3ccccc3[C@@H]2c2ccc(F)cc2)OC[C@@H]1O [Compound 5083, ((2S,4S,5R)-4-amino-5-hydroxytetrahydro-2H-pyran-2-yl)((S)-1-(4-fluorophenyl)-3,4-dihydroisoquinolin-2(1H)-yl)methanone] | 0.084 µM
N[C@@H]1CO[C@@H](C(=O)N2CCc3ccccc3[C@@H]2c2ccc(F)cc2)C[C@@H]1O [Compound 5052, ((2R,4S,5R)-5-amino-4-hydroxytetrahydro-2H-pyran-2-yl)((S)-1-(4-fluorophenyl)-3,4-dihydroisoquinolin-2(1H)-yl)methanone] | 0.018 µM
CO[C@H]1CO[C@@H](C(=O)N2CCc3ccccc3[C@@H]2c2ccc(F)cc2)C[C@H]1N [Compound 5073, ((2R,4R,5R)-4-amino-5-methoxytetrahydro-2H-pyran-2-yl)((S)-1-(4-fluorophenyl)-3,4-dihydroisoquinolin-2(1H)-yl)methanone] | 0.159 µM
N[C@H]1C[C@H](C(=O)N2CCc3ccccc3[C@@H]2c2ccc(F)cc2F)OC[C@H]1O [Compound 5257] | 0.022 µM
CC[N-][S@@+2](C)([O-])[C@H]1CO[C@@H](C(=O)N2CCc3ccccc3[C@@H]2c2ccc(F)cc2)C[C@@H]1N (single isomer, unassigned) [Compound 5557] | 0.523 µM
N[C@H]1C[C@@H](C(=O)N2CCc3ccccc3[C@@H]2c2ccc(F)cc2)OC[C@H]1O [Compound 5058, ((2S,4S,5S)-4-amino-5-hydroxytetrahydro-2H-pyran-2-yl)((S)-1-(4-fluorophenyl)-3,4-dihydroisoquinolin-2(1H)-yl)methanone] | 0.29 µM
CCN[C@H]1C[C@H](C(=O)N2CCc3ccccc3[C@@H]2c2ccc(F)cc2)OC[C@@H]1OC [Compound 5504, ((2R,4S,5R)-4-(ethylamino)-5-methoxytetrahydro-2H-pyran-2-yl)((S)-1-(4-fluorophenyl)-3,4-dihydroisoquinolin-2(1H)-yl)methanone] | 0.009 µM
C[C@@]1(C(=O)N2CCc3ccccc3[C@@H]2c2ccc(F)cc2)C[C@H](N)CCO1 (single isomer, unassigned) [Compound 5237] | 0.665 µM
CN1C(=O)CN[C@H]2C[C@H](C(=O)N3CCc4ccccc4[C@@H]3c3ccc(F)cc3)OC[C@@H]21 [Compound 5533, (4aR,7R,8aS)-7-((S)-1-(4-fluorophenyl)-1,2,3,4-tetrahydroisoquinoline-2-carbonyl)-4-methylhexahydro-2H-pyrano[3,4-b]pyrazin-3(4H)-one] | 0.289 µM
C[C@@]1(C(=O)N2CCc3ccccc3[C@@H]2c2ccc(F)cc2)CCNCCO1 [Compound 5240] | 0.631 µM
N[C@H]1C[C@H](C(=O)N2CCc3ccccc3[C@@H]2c2ccc(F)cc2)OC[C@@H]1OCC(F)(F)F [Compound 5475, ((2R,4S,5R)-4-amino-5-(2,2,2-trifluoroethoxy)tetrahydro-2H-pyran-2-yl)((S)-1-(4-fluorophenyl)-3,4-dihydroisoquinolin-2(1H)-yl)methanone] | 0.001 µM
O=C([C@H]1CNCCO1)N1CCc2ccccc2[C@@H]1c1ccc(F)cc1 [Compound 5405, ((S)-1-(4-fluorophenyl)-3,4-dihydroisoquinolin-2(1H)-yl)((R)-morpholin-2-yl)methanone] | 0.736 µM
O=C([C@H]1C[C@@](O)(CNCCO)CO1)N1CCc2ccccc2[C@@H]1c1ccc(F)cc1 (single isomer, unassigned) [Compound 5040] | 0.173 µM
N[C@@H]1CCO[C@H](C(=O)N2CCc3ccccc3[C@@H]2c2ccc(F)cc2)C1 (single isomer, unassigned) [Compound 5081] | 0.188 µM
CO[C@@H]1CO[C@@H](C(=O)N2CCc3ccccc3[C@@H]2c2ccc(F)cc2F)C[C@@H]1N [Compound 5261] | 0.079 µM

— patent US20230406843A1, “Progranulin Modulators and Methods of Using the Same” (ARKUDA THERAPEUTICS, priority 2020, published 2023)
